Reference: the NIST ThermoML archive (doi:10.1016/j.jct.2006.02.001)
Numbers after ± are expanded uncertainties.

Assays:
[1] = refractive index (Na D-line) (dimensionless); xn = mol fraction of the nth substance listed; details: 101 kPa, Liquid
[2] = xn = mol fraction of the nth substance listed; details: 101 kPa, Liquid

COc1ccccc1 [anisole] + Cc1ccccc1
Details	mass density, 288.15 K [kg/m3]	mass density, 293.15 K [kg/m3]	mass density, 298.15 K [kg/m3]	mass density, 303.15 K [kg/m3]	refractive index, 288.15 K	refractive index, 293.15 K	refractive index, 298.15 K	refractive index, 303.15 K
[1], x1 = 0.1179	–	–	–	–	1.503 ± 0.0096	1.4997 ± 0.0096	1.4971 ± 0.0096	1.4946 ± 0.0096
[1], x1 = 0.2098	–	–	–	–	1.5056 ± 0.0096	1.5017 ± 0.0096	1.4992 ± 0.0096	1.4966 ± 0.0096
[1], x1 = 0.3078	–	–	–	–	1.5083 ± 0.0096	1.5038 ± 0.0096	1.5012 ± 0.0096	1.4987 ± 0.0096
[1], x1 = 0.4082	–	–	–	–	1.511 ± 0.0097	1.5059 ± 0.0096	1.5033 ± 0.0096	1.5008 ± 0.0096
[1], x1 = 0.5157	–	–	–	–	1.5138 ± 0.0097	1.5081 ± 0.0096	1.5054 ± 0.0096	1.5029 ± 0.0096
[1], x1 = 0.6172	–	–	–	–	1.5163 ± 0.0097	1.5099 ± 0.0097	1.5061 ± 0.0096	1.5049 ± 0.0096
[1], x1 = 0.7286	–	–	–	–	1.5192 ± 0.0097	1.5122 ± 0.0096	1.5095 ± 0.0096	1.5071 ± 0.0096
[1], x1 = 0.8575	–	–	–	–	1.5223 ± 0.0097	1.5145 ± 0.0097	1.5118 ± 0.0096	1.5094 ± 0.0096
[1], x1 = 0.917	–	–	–	–	1.5236 ± 0.0097	1.5155 ± 0.0097	1.5135 ± 0.0096	1.5104 ± 0.0096
[1], x1 = 1	–	–	–	–	1.5256 ± 0.0098	1.5169 ± 0.0097	1.5141 ± 0.0096	1.5117 ± 0.0096
[2], x1 = 0.1179	887.1 ± 0.78	882.58 ± 0.8	877.96 ± 0.82	873.25 ± 0.84	–	–	–	–
[2], x1 = 0.2098	899.23 ± 0.74	894.67 ± 0.76	890.04 ± 0.78	885.33 ± 0.8	–	–	–	–
[2], x1 = 0.3078	912.01 ± 0.69	907.42 ± 0.71	902.81 ± 0.73	898.06 ± 0.75	–	–	–	–
[2], x1 = 0.4082	924.96 ± 0.65	920.33 ± 0.67	915.72 ± 0.69	910.95 ± 0.71	–	–	–	–
[2], x1 = 0.5157	938.67 ± 0.61	934.03 ± 0.63	929.43 ± 0.64	924.67 ± 0.66	–	–	–	–
[2], x1 = 0.6172	951.49 ± 0.57	946.82 ± 0.59	942.24 ± 0.6	937.46 ± 0.62	–	–	–	–
[2], x1 = 0.7286	965.32 ± 0.53	960.65 ± 0.55	956.15 ± 0.56	951.37 ± 0.58	–	–	–	–
[2], x1 = 0.8575	981.16 ± 0.49	976.45 ± 0.5	971.96 ± 0.52	967.26 ± 0.54	–	–	–	–
[2], x1 = 0.917	988.36 ± 0.47	983.65 ± 0.49	979.17 ± 0.5	974.46 ± 0.52	–	–	–	–
[2], x1 = 1	998.44 ± 0.45	993.65 ± 0.46	989.15 ± 0.48	984.37 ± 0.5	–	–	–	–
